Reference: ChEMBL document CHEMBL1201862, “PubChem BioAssay data set” (2004)
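1) Cells in 96-well plates. 2) Compound, 48 h, 5 concentrations. 3) Linear interpolation between surrounding doses. 4) Unreached endpoint = highest concentration. GI50 = concentration required for 50% inhibition of growth.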 Calls of active or inactive are those of the source. No stated cut-off is given here; in the data, active = GI50 up to about 1.1 µM and inactive = higher.

How the values were obtained:
Test in all cases: NCI tumour cell line growth inhibition, 48 h
M14 = test system: M14
NCI-H460 = test system: NCI-H460
DU-145 = test system: DU-145
SK-MEL-5 = test system: SK-MEL-5
MDA-MB-231 = test system: MDA-MB-231
K562 = test system: K562
SK-MEL-28 = test system: SK-MEL-28
786-0 = test system: 786-0
SF-539 = test system: SF-539
HCT-116 = test system: HCT-116
T47D = test system: T47D
NCI-H522 = test system: NCI-H522
HCT-15 = test system: HCT-15
NCI/ADR-RES = test system: NCI/ADR-RES
SNB-19 = test system: SNB-19
OVCAR-5 = test system: OVCAR-5
COLO 205 = test system: COLO 205
Malme-3M = test system: Malme-3M
Hs-578T = test system: Hs-578T
RPMI-8226 = test system: RPMI-8226

| Structure (SMILES) | GI50 (M14) | GI50 (NCI-H460) | GI50 (DU-145) | GI50 (SK-MEL-5) | GI50 (MDA-MB-231) | GI50 (K562) | GI50 (SK-MEL-28) | GI50 (786-0) | GI50 (SF-539) | GI50 (HCT-116) | GI50 (T47D) | GI50 (NCI-H522) | GI50 (HCT-15) | GI50 (NCI/ADR-RES) | GI50 (SNB-19) | GI50 (OVCAR-5) | GI50 (COLO 205) | GI50 (Malme-3M) | GI50 (Hs-578T) | GI50 (RPMI-8226) |
| --- | --- | --- | --- | --- | --- | --- | --- | --- | --- | --- | --- | --- | --- | --- | --- | --- | --- | --- | --- | --- |
| CC12CC3CC/C(=N\O)C(C1)C3(N1CCOCC1)C/C2=N/O (configuration not stated) | > 100 µM (inactive) | > 100 µM (inactive) | > 100 µM (inactive) | > 100 µM (inactive) | > 100 µM (inactive) | > 100 µM (inactive) | > 100 µM (inactive) | > 100 µM (inactive) | > 100 µM (inactive) | > 100 µM (inactive) | > 100 µM (inactive) | > 100 µM (inactive) | > 100 µM | > 100 µM (inactive) | > 100 µM (inactive) | > 100 µM (inactive) | > 100 µM (inactive) | > 100 µM (inactive) |  |  |
| CCC(CCCN)Nc1cc(OC)cc2cccnc12 (configuration not stated) | 41.3 µM (inactive) | > 100 µM (inactive) | > 100 µM (inactive) | 85.1 µM (inactive) | 53.5 µM (inactive) | 57 µM (inactive) | > 100 µM (inactive) | > 100 µM (inactive) | > 100 µM (inactive) | > 100 µM (inactive) |  |  | > 100 µM | > 100 µM (inactive) | > 100 µM (inactive) | > 100 µM (inactive) | 33.6 µM (inactive) | 38.7 µM (inactive) | > 100 µM (inactive) |  |
| Cc1ccc(C(=O)N/N=C(\N=N\c2ccccc2[N+](=O)[O-])c2ccc(N(C)C)cc2)cc1 | > 100 µM (inactive) | 66.8 µM (inactive) |  | > 100 µM (inactive) | > 100 µM (inactive) | > 100 µM (inactive) | > 100 µM (inactive) | > 100 µM (inactive) | > 100 µM (inactive) | > 100 µM (inactive) |  | > 100 µM (inactive) | 92.5 µM | > 100 µM (inactive) | > 100 µM (inactive) | > 100 µM (inactive) | > 100 µM (inactive) |  | > 100 µM (inactive) | > 100 µM (inactive) |
| CCCCCCCCCCCCCC[C@@H](O)[C@H]1CC[C@H]([C@H]2CC[C@H]([C@H](O)CCCCCC[C@@H](O)CC3=C[C@H](C)OC3=O)O2)O1 | > 25 µM (inactive) | 0.0552 µM (active) | 4.24 µM (inactive) | 0.117 µM (active) | > 25 µM (inactive) |  | > 25 µM (inactive) | > 25 µM (inactive) | > 13.8 µM (inactive) | 0.203 µM (active) |  | 8.93 µM (inactive) | > 25 µM | > 20.1 µM (inactive) | > 25 µM (inactive) | > 25 µM (inactive) | > 25 µM (inactive) | > 25 µM (inactive) | 1.63 µM (inactive) |  |
| CCOP(=O)(/C=C/n1cc(C)c(=O)[nH]c1=O)OCC | > 100 µM (inactive) | > 100 µM (inactive) | > 100 µM (inactive) | > 100 µM (inactive) | > 100 µM (inactive) | > 100 µM (inactive) | > 100 µM (inactive) | > 100 µM (inactive) | > 100 µM (inactive) | > 100 µM (inactive) | > 100 µM (inactive) | > 100 µM (inactive) | > 100 µM | > 100 µM (inactive) | > 100 µM (inactive) | > 100 µM (inactive) | > 100 µM (inactive) |  |  | > 100 µM (inactive) |
| C/C(=N/N)c1ccc2[nH]c3c(C)cc([N+](=O)[O-])c(C)c3c2c1 | 15 µM (inactive) | 5.87 µM (inactive) |  | 5 µM (inactive) |  | 2.93 µM (inactive) | 6.07 µM (inactive) | 4.6 µM (inactive) | 4.76 µM (inactive) | 4.09 µM (inactive) |  | 8.51 µM (inactive) | 9.55 µM |  | 14.4 µM (inactive) | > 10 µM (inactive) | 11.5 µM (inactive) | 4.33 µM (inactive) |  | 8.97 µM (inactive) |
